Measured values from publication PMC3329801 (Nature Chemical Biology, 2011).

Tested on: influenza virus NS1 protein levels
Type: cell-based

With `CO[C@H]1C[C@@H]2CC[C@@H](C)[C@@](O)(O2)C(=O)C(=O)N2CCCC[C@H]2C(=O)O[C@H]([C@H](C)C[C@@H]2CC[C@@H](O)[C@H](OC)C2)CC(=O)[C@H](C)/C=C(\C)[C@@H](O)[C@@H](OC)C(=O)[C@H](C)C[C@H](C)/C=C/C=C/C=C/1C` [rapamycin] the “viral protein levels in REDD1+/+ and REDD1−/− cells” value was “down-regulated viral protein levels” and the “influenza virus NS1 protein levels” value (Fig. S7) was “reduced influenza virus NS1 protein levels”.

`CCN(CC)CCCC(C)Nc1ccnc2cc(Cl)ccc12` (stereo not drawn) [chloroquine] was tested, and the “viral protein levels in REDD1−/− cells” value (autophagy inhibitor treatment, Fig. S13) was “did not affect viral protein levels”.
